Measurements taken from ChEMBL document CHEMBL4765227, “Hit to lead optimization of a series of N-[4-(1,3-benzothiazol-2-yl)phenyl]acetamides as monoacylglycerol lipase inhibitors with potential anticancer activity” (Eur J Med Chem, 2016).

Columns and labels:
Assay type in all cases: functional
Settings in all cases: read-out: GI
[1] = test system: NCI-H522; test: Growth inhibition of human NCI-H522 cells at 10 uM incubated for 48 hrs by sulforhodamine B assay relative to control
[2] = test system: TK-10; test: Growth inhibition of human TK-10 cells at 10 uM incubated for 48 hrs by sulforhodamine B assay relative to control
[3] = test system: ACHN; test: Growth inhibition of human ACHN cells at 10 uM incubated for 48 hrs by sulforhodamine B assay relative to control
[4] = test system: SK-MEL-5; test: Growth inhibition of human SK-MEL-5 cells at 10 uM incubated for 48 hrs by sulforhodamine B assay relative to control
[5] = test system: NCI-H460; test: Growth inhibition of human NCI-H460 cells at 10 uM incubated for 48 hrs by sulforhodamine B assay relative to control
[6] = test system: IGROV-1; test: Growth inhibition of human IGROV-1 cells at 10 uM incubated for 48 hrs by sulforhodamine B assay relative to control
[7] = test system: NCI-H23; test: Growth inhibition of human NCI-H23 cells at 10 uM incubated for 48 hrs by sulforhodamine B assay relative to control
[8] = test system: HCT-116; test: Growth inhibition of human HCT-116 cells at 10 uM incubated for 48 hrs by sulforhodamine B assay relative to control
[9] = test system: MDA-MB-435; test: Growth inhibition of human MDA-MB-435 cells at 10 uM incubated for 48 hrs by sulforhodamine B assay relative to control
[10] = test system: M14; test: Growth inhibition of human M14 cells at 10 uM incubated for 48 hrs by sulforhodamine B assay relative to control
[11] = test system: RXF 393; test: Growth inhibition of human RXF 393 cells at 10 uM incubated for 48 hrs by sulforhodamine B assay relative to control
[12] = test system: A549; test: Growth inhibition of human A549/ATCC cells at 10 uM incubated for 48 hrs by sulforhodamine B assay relative to control
[13] = test system: SR; test: Growth inhibition of human SR cells at 10 uM incubated for 48 hrs by sulforhodamine B assay relative to control
[14] = test system: LOX IMVI; test: Growth inhibition of human LOX IMVI cells at 10 uM incubated for 48 hrs by sulforhodamine B assay relative to control
[15] = test system: SF-295; test: Growth inhibition of human SF-295 cells at 10 uM incubated for 48 hrs by sulforhodamine B assay relative to control
[16] = test system: NCI-H322M; test: Growth inhibition of human NCI-H322M cells at 10 uM incubated for 48 hrs by sulforhodamine B assay relative to control
[17] = test system: U-251; test: Growth inhibition of human U-251 cells at 10 uM incubated for 48 hrs by sulforhodamine B assay relative to control
[18] = test system: 786-0; test: Growth inhibition of human 786-0 cells at 10 uM incubated for 48 hrs by sulforhodamine B assay relative to control
[19] = test system: MCF7; test: Growth inhibition of human MCF7 cells at 10 uM incubated for 48 hrs by sulforhodamine B assay relative to control
[20] = test system: HL-60(TB); test: Growth inhibition of human HL-60(TB) cells at 10 uM incubated for 48 hrs by sulforhodamine B assay relative to control
[21] = test system: DU-145; test: Growth inhibition of human DU-145 cells at 10 uM incubated for 48 hrs by sulforhodamine B assay relative to control
[22] = test system: PC-3; test: Growth inhibition of human PC-3 cells at 10 uM incubated for 48 hrs by sulforhodamine B assay relative to control
[23] = test system: OVCAR-8; test: Growth inhibition of human OVCAR-8 cells at 10 uM incubated for 48 hrs by sulforhodamine B assay relative to control
[24] = test system: OVCAR-4; test: Growth inhibition of human OVCAR-4 cells at 10 uM incubated for 48 hrs by sulforhodamine B assay relative to control
[25] = test system: KM12; test: Growth inhibition of human KM12 cells at 10 uM incubated for 48 hrs by sulforhodamine B assay relative to control
[26] = test system: OVCAR-3; test: Growth inhibition of human OVCAR-3 cells at 10 uM incubated for 48 hrs by sulforhodamine B assay relative to control
[27] = test system: MDA-MB-468; test: Growth inhibition of human MDA-MB-468 cells at 10 uM incubated for 48 hrs by sulforhodamine B assay relative to control
[28] = test system: NCI/ADR-RES; test: Growth inhibition of human NCI/ADR-RES cells at 10 uM incubated for 48 hrs by sulforhodamine B assay relative to control
[29] = test system: BT-549; test: Growth inhibition of human BT-549 cells at 10 uM incubated for 48 hrs by sulforhodamine B assay relative to control
[30] = test system: CAKI-1; test: Growth inhibition of human CAKI-1 cells at 10 uM incubated for 48 hrs by sulforhodamine B assay relative to control
[31] = test system: UACC-62; test: Growth inhibition of human UACC-62 cells at 10 uM incubated for 48 hrs by sulforhodamine B assay relative to control
[32] = test system: MDA-MB-231; test: Growth inhibition of human MDA-MB-231 cells at 10 uM incubated for 48 hrs by sulforhodamine B assay relative to control
[33] = test system: NCI-H226; test: Growth inhibition of human NCI-H226 cells at 10 uM incubated for 48 hrs by sulforhodamine B assay relative to control
[34] = test system: CCRF-CEM; test: Growth inhibition of human CCRF-CEM cells at 10 uM incubated for 48 hrs by sulforhodamine B assay relative to control
[35] = test system: SF-539; test: Growth inhibition of human SF-539 cells at 10 uM incubated for 48 hrs by sulforhodamine B assay relative to control
[36] = test system: HOP-62; test: Growth inhibition of human HOP-62 cells at 10 uM incubated for 48 hrs by sulforhodamine B assay relative to control
[37] = test system: MOLT-4; test: Growth inhibition of human MOLT-4 cells at 10 uM incubated for 48 hrs by sulforhodamine B assay relative to control
[38] = test system: Hs-578T; test: Growth inhibition of human Hs-578T cells at 10 uM incubated for 48 hrs by sulforhodamine B assay relative to control
[39] = test system: SK-OV-3; test: Growth inhibition of human SK-OV-3 cells at 10 uM incubated for 48 hrs by sulforhodamine B assay relative to control
[40] = test system: K562; test: Growth inhibition of human K562 cells at 10 uM incubated for 48 hrs by sulforhodamine B assay relative to control
[41] = test system: HT-29; test: Growth inhibition of human HT-29 cells at 10 uM incubated for 48 hrs by sulforhodamine B assay relative to control
[42] = test system: UO-31; test: Growth inhibition of human UO-31 cells at 10 uM incubated for 48 hrs by sulforhodamine B assay relative to control
[43] = test system: SN12C; test: Growth inhibition of human SN12C cells at 10 uM incubated for 48 hrs by sulforhodamine B assay relative to control
[44] = test system: COLO 205; test: Growth inhibition of human COLO 205 cells at 10 uM incubated for 48 hrs by sulforhodamine B assay relative to control

In the case of `O=C(CNc1ccccc1)Nc1ccc(-c2nc3ccccc3s2)cc1`, the inhibition of growth at 10 µM [1] is reported as 26%, the inhibition of growth at 10 µM [2] is reported as -17.9% and the inhibition of growth at 10 µM [3] is reported as -2.46%. The inhibition of growth at 10 µM [4] was 22%, the inhibition of growth at 10 µM [5] was 0.08% and the inhibition of growth at 10 µM [6] was 16.1%. It also gave an inhibition of growth at 10 µM [7] of 11.9%, an inhibition of growth at 10 µM [8] of 29.7% and an inhibition of growth at 10 µM [9] of 12.6%. The inhibition of growth at 10 µM [10] was 12.9%, the inhibition of growth at 10 µM [11] was 5.43% and the inhibition of growth at 10 µM [12] was 9.72%. The inhibition of growth at 10 µM [13] was 74.5%, the inhibition of growth at 10 µM [14] was 55.4% and the inhibition of growth at 10 µM [15] was 7.06%. The inhibition of growth at 10 µM [16] was 12.9%, the inhibition of growth at 10 µM [17] was 14.8% and the inhibition of growth at 10 µM [18] was 15.4%. The inhibition of growth at 10 µM [19] was 53.2%, the inhibition of growth at 10 µM [20] was 11% and the inhibition of growth at 10 µM [21] was 3.91%. For the same compound, the inhibition of growth at 10 µM [22] was 10.1%, the inhibition of growth at 10 µM [23] was 9.58% and the inhibition of growth at 10 µM [24] was 15.3%. It also gave an inhibition of growth at 10 µM [25] of 5.48%, an inhibition of growth at 10 µM [26] of 5.15% and an inhibition of growth at 10 µM [27] of 29.5%. It also gave an inhibition of growth at 10 µM [28] of 1.75%, an inhibition of growth at 10 µM [29] of 43.5% and an inhibition of growth at 10 µM [30] of 1.16%. The inhibition of growth at 10 µM [31] was 23.5%, the inhibition of growth at 10 µM [32] was -0.13% and the inhibition of growth at 10 µM [33] was 5.83%. It also gave an inhibition of growth at 10 µM [34] of 74.3%, an inhibition of growth at 10 µM [35] of 12% and an inhibition of growth at 10 µM [36] of -12%. It also gave an inhibition of growth at 10 µM [37] of 84.5%, an inhibition of growth at 10 µM [38] of -8.46% and an inhibition of growth at 10 µM [39] of -24.1%. It also gave an inhibition of growth at 10 µM [40] of 22.5%, an inhibition of growth at 10 µM [41] of 2% and an inhibition of growth at 10 µM [42] of 30.2%. The inhibition of growth at 10 µM [43] was 8.85% and the inhibition of growth at 10 µM [44] was -11.2%.
`CN1CCN(CC(=O)Nc2ccc(-c3nc4ccccc4s3)cc2)CC1` was tested, and the inhibition of growth at 10 µM [1] was 41.1%, the inhibition of growth at 10 µM [2] was 5.2% and the inhibition of growth at 10 µM [3] was 28.8%. The inhibition of growth at 10 µM [4] was 26.3%, the inhibition of growth at 10 µM [5] was 15.3% and the inhibition of growth at 10 µM [6] was 19.4%. For the same compound, the inhibition of growth at 10 µM [7] was 17.8%, the inhibition of growth at 10 µM [8] was 29.1% and the inhibition of growth at 10 µM [9] was 74.6%. For the same compound, the inhibition of growth at 10 µM [10] was 32.4%, the inhibition of growth at 10 µM [11] was 45.7% and the inhibition of growth at 10 µM [12] was 11.4%. The inhibition of growth at 10 µM [13] was 93.7%, the inhibition of growth at 10 µM [14] was 134% and the inhibition of growth at 10 µM [15] was 8.86%. It also gave an inhibition of growth at 10 µM [16] of 22.1%, an inhibition of growth at 10 µM [17] of 32.5% and an inhibition of growth at 10 µM [18] of 21.3%. For the same compound, the inhibition of growth at 10 µM [19] was 63.2%, the inhibition of growth at 10 µM [20] was 3.63% and the inhibition of growth at 10 µM [21] was 14.8%. It also gave an inhibition of growth at 10 µM [22] of 16.4%, an inhibition of growth at 10 µM [23] of 8.74% and an inhibition of growth at 10 µM [24] of 12.7%. It also gave an inhibition of growth at 10 µM [25] of 14.4%, an inhibition of growth at 10 µM [26] of 0.78% and an inhibition of growth at 10 µM [27] of 111%. The inhibition of growth at 10 µM [28] was 14.4%, the inhibition of growth at 10 µM [29] was 19.4% and the inhibition of growth at 10 µM [30] was 26.5%. For the same compound, the inhibition of growth at 10 µM [31] was 136%, the inhibition of growth at 10 µM [32] was 40.2% and the inhibition of growth at 10 µM [33] was 3.83%. It also gave an inhibition of growth at 10 µM [34] of 36.3%, an inhibition of growth at 10 µM [35] of 132% and an inhibition of growth at 10 µM [36] of 12.7%. It also gave an inhibition of growth at 10 µM [37] of 22%, an inhibition of growth at 10 µM [38] of 6.34% and an inhibition of growth at 10 µM [39] of 5.77%. The inhibition of growth at 10 µM [40] was 58.2%, the inhibition of growth at 10 µM [41] was 60.4% and the inhibition of growth at 10 µM [42] was 42.5%. It also gave an inhibition of growth at 10 µM [43] of 22.3% and an inhibition of growth at 10 µM [44] of 60.3%.
